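Briefly, cells in 96-well plates were exposed to five compound concentrations for 48 h, and endpoints were estimated by linear interpolation. The concentration for full growth arrest is given as TGI.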
Test system: A549 NSCLC
Experiment: NCI tumour cell line growth inhibition, 48 h

| Compound | TGI [µM] |
| --- | --- |
| COc1ccc2c(c1)CN1C(=N2)CSC1c1ccccc1Cl (configuration not stated) | > 100 |
| CC1(CNCc2ccccc2)CC(CCc2ccccc2)N(C(=O)c2ccc([N+](=O)[O-])cc2)C1Cc1ccc(O)cc1 (configuration not stated) | 24.8 |
| Cc1cc2[nH]c3c(C#N)c4c(c(=O)n3c2cc1C)CCCC4 | > 100 |
| O=C1CSC(c2cccs2)N1c1nc2cc3sc(N4C(=O)CSC4c4cccs4)nc3cc2s1 (configuration not stated) | > 50 |
| Cc1cn(C(C)OCCN2C(=O)c3ccccc3C2=O)c(=O)[nH]c1=O (configuration not stated) | > 100 |
| CCOC(=O)C1=C(OC(OCC)C(CC)[Se]c2ccccc2)CCCC1 (configuration not stated) | > 100 |
| NC(N)=NS(=O)(=O)c1ccc(NC(=O)c2ccc3nc4ccccc4c(Nc4ccc(S(=O)(=O)N=C(N)N)cc4)c3c2)cc1 | > 100 |
| COc1ccc2cc(NC(=O)N/N=C\c3ccc(Cl)cc3)ccc2c1 | > 100 |
| Brc1cc2nn(-c3ccccc3)nc2c2nonc12 | > 100 |
| CCOC(=O)C(NC(=O)CC(C)C)(N1CCN(c2cc3c(cc2F)c(=O)c(C(=O)O)cn3C2CC2)CC1)C(F)(F)F (configuration not stated) | > 100 |
| Cc1cn([C@@H]2C[C@H]2CO)c(=O)[nH]c1=O | > 100 |
| c1ccc(/C(=N/Nc2ccccn2)c2ncccn2)cc1 | > 76.9 |
| O=C1C=CC(=O)c2c(O)c(NCCc3ccc(O)cc3)c(Cl)c(O)c21 | > 10 |
| COc1cc(I)c2c3c1OC1C34CCN(C)C(C2)C4=CC(I)C1(OC)OC (configuration not stated) | > 100 |
| NC(=O)C(=CNC(=S)c1ccncc1)C(N)=O | > 100 |
| O=c1c(-c2ccc(Cl)cc2)nnc2n(Cc3ccccc3)c3ccccc3n12 | > 100 |

| Compound | TGI [µM] |
| --- | --- |
| Nc1c(C(=O)c2ccc(Cl)cc2)[nH]c(NCc2ccccc2)c1C(=S)Nc1ccccc1 | 4.87 |
| CCC(C)C(=O)OC1CC2(C)C(c3ccoc3)OC(=O)CC23OC2(C)OC34C(OC(=O)C(C)C)C3(O)C(OC(=O)C5(C)OC5C)C5(C)CC3(O)C(C)(C5CC(=O)OC)C14O2 (configuration not stated) | > 100 |
| c1ccc2c3c(c(N4CCOCC4)nc2c1)CCCC3 | > 100 |
| O=C(Nc1ccccc1C(=O)NCCCO)/C(=C/c1ccccc1O)NC(=O)c1ccccc1 | > 100 |
| FC(F)(F)c1ccc2nc3n(c2c1)C(c1c(Cl)cccc1Cl)SC3 (configuration not stated) | 29.5 |
| CCC(=O)Oc1c2ccsc2c(OC(=O)CC)c2ccsc12 | 4.51 |
| NC(=O)c1cc2ccccc2o/c1=N/O | > 100 |
| COC(=O)C1CC2(c3ccccc3)C(=O)c3ccccc3N2O1 (configuration not stated) | > 100 |
| COc1cc2c(/C=C3/C(=O)Nc4ccccc43)c(Cl)[nH]c2cc1C | 22.7 |
| O=C(O)C(CO)NC(=O)n1c2ccccc2c2ccccc21 (configuration not stated) | > 100 |
| Brc1ccc2c(-c3csc(-c4c[nH]c5ccc(Br)cc45)n3)c[nH]c2c1 | 19 |
| Cc1c2ncccc2cc2oc3ccccc3c(=O)c12 | > 100 |
| CC1(C)OCC2OC3([C@H]4OC(C)(C)O[C@@H]4CO)OC(C)(C)OC3C2O1 (some centres not stated) | > 100 |
| O=C(Nc1cccc(O)c1)C(=O)C(C(=O)c1ccccc1F)C1OC(=O)c2ccccc21 (configuration not stated) | > 100 |
| Clc1ccc(OCc2nnc(CCCCCCCCc3nnc(COc4ccc(Cl)cc4)n3Nc3ccccc3)n2Nc2ccccc2)cc1 | > 83.3 |

Test system: KM12 colon
Experiment: NCI tumour cell line growth inhibition, 48 h

| Compound | TGI [µM] |
| --- | --- |
| COc1ccc2c(c1)CN1C(=N2)CSC1c1ccccc1Cl (configuration not stated) | 34.8 |
| CC1(CNCc2ccccc2)CC(CCc2ccccc2)N(C(=O)c2ccc([N+](=O)[O-])cc2)C1Cc1ccc(O)cc1 (configuration not stated) | 36.2 |
| Cc1cc2[nH]c3c(C#N)c4c(c(=O)n3c2cc1C)CCCC4 | > 100 |
| O=C1CSC(c2cccs2)N1c1nc2cc3sc(N4C(=O)CSC4c4cccs4)nc3cc2s1 (configuration not stated) | > 50 |
| Cc1cn(C(C)OCCN2C(=O)c3ccccc3C2=O)c(=O)[nH]c1=O (configuration not stated) | > 100 |
| CCOC(=O)C1=C(OC(OCC)C(CC)[Se]c2ccccc2)CCCC1 (configuration not stated) | > 100 |
| NC(N)=NS(=O)(=O)c1ccc(NC(=O)c2ccc3nc4ccccc4c(Nc4ccc(S(=O)(=O)N=C(N)N)cc4)c3c2)cc1 | > 100 |
| COc1ccc2cc(NC(=O)N/N=C\c3ccc(Cl)cc3)ccc2c1 | > 100 |
| Brc1cc2nn(-c3ccccc3)nc2c2nonc12 | > 100 |
| CCOC(=O)C(NC(=O)CC(C)C)(N1CCN(c2cc3c(cc2F)c(=O)c(C(=O)O)cn3C2CC2)CC1)C(F)(F)F (configuration not stated) | 39.4 |
| Cc1cn([C@@H]2C[C@H]2CO)c(=O)[nH]c1=O | > 100 |
| c1ccc(/C(=N/Nc2ccccn2)c2ncccn2)cc1 | > 53.8 |
| O=C1C=CC(=O)c2c(O)c(NCCc3ccc(O)cc3)c(Cl)c(O)c21 | > 10 |
| COc1cc(I)c2c3c1OC1C34CCN(C)C(C2)C4=CC(I)C1(OC)OC (configuration not stated) | 40 |
| NC(=O)C(=CNC(=S)c1ccncc1)C(N)=O | > 100 |
| O=c1c(-c2ccc(Cl)cc2)nnc2n(Cc3ccccc3)c3ccccc3n12 | > 100 |

| Compound | TGI [µM] |
| --- | --- |
| Nc1c(C(=O)c2ccc(Cl)cc2)[nH]c(NCc2ccccc2)c1C(=S)Nc1ccccc1 | 3.24 |
| CCC(C)C(=O)OC1CC2(C)C(c3ccoc3)OC(=O)CC23OC2(C)OC34C(OC(=O)C(C)C)C3(O)C(OC(=O)C5(C)OC5C)C5(C)CC3(O)C(C)(C5CC(=O)OC)C14O2 (configuration not stated) | > 100 |
| c1ccc2c3c(c(N4CCOCC4)nc2c1)CCCC3 | > 100 |
| O=C(Nc1ccccc1C(=O)NCCCO)/C(=C/c1ccccc1O)NC(=O)c1ccccc1 | > 100 |
| FC(F)(F)c1ccc2nc3n(c2c1)C(c1c(Cl)cccc1Cl)SC3 (configuration not stated) | 28.3 |
| CCC(=O)Oc1c2ccsc2c(OC(=O)CC)c2ccsc12 | 3.34 |
| NC(=O)c1cc2ccccc2o/c1=N/O | > 100 |
| COC(=O)C1CC2(c3ccccc3)C(=O)c3ccccc3N2O1 (configuration not stated) | > 100 |
| COc1cc2c(/C=C3/C(=O)Nc4ccccc43)c(Cl)[nH]c2cc1C | 0.232 |
| O=C(O)C(CO)NC(=O)n1c2ccccc2c2ccccc21 (configuration not stated) | > 100 |
| Brc1ccc2c(-c3csc(-c4c[nH]c5ccc(Br)cc45)n3)c[nH]c2c1 | 6.4 |
| Cc1c2ncccc2cc2oc3ccccc3c(=O)c12 | > 100 |
| CC1(C)OCC2OC3([C@H]4OC(C)(C)O[C@@H]4CO)OC(C)(C)OC3C2O1 (some centres not stated) | > 100 |
| O=C(Nc1cccc(O)c1)C(=O)C(C(=O)c1ccccc1F)C1OC(=O)c2ccccc21 (configuration not stated) | 71 |
| Clc1ccc(OCc2nnc(CCCCCCCCc3nnc(COc4ccc(Cl)cc4)n3Nc3ccccc3)n2Nc2ccccc2)cc1 | 36.9 |

Test system: CAKI-1 renal
Experiment: NCI tumour cell line growth inhibition, 48 h

| Compound | TGI [µM] |
| --- | --- |
| COc1ccc2c(c1)CN1C(=N2)CSC1c1ccccc1Cl (configuration not stated) | > 100 |
| CC1(CNCc2ccccc2)CC(CCc2ccccc2)N(C(=O)c2ccc([N+](=O)[O-])cc2)C1Cc1ccc(O)cc1 (configuration not stated) | 28.1 |
| Cc1cc2[nH]c3c(C#N)c4c(c(=O)n3c2cc1C)CCCC4 | > 100 |
| O=C1CSC(c2cccs2)N1c1nc2cc3sc(N4C(=O)CSC4c4cccs4)nc3cc2s1 (configuration not stated) | > 50 |
| Cc1cn(C(C)OCCN2C(=O)c3ccccc3C2=O)c(=O)[nH]c1=O (configuration not stated) | > 100 |
| CCOC(=O)C1=C(OC(OCC)C(CC)[Se]c2ccccc2)CCCC1 (configuration not stated) | > 100 |
| NC(N)=NS(=O)(=O)c1ccc(NC(=O)c2ccc3nc4ccccc4c(Nc4ccc(S(=O)(=O)N=C(N)N)cc4)c3c2)cc1 | > 100 |
| COc1ccc2cc(NC(=O)N/N=C\c3ccc(Cl)cc3)ccc2c1 | > 100 |
| Brc1cc2nn(-c3ccccc3)nc2c2nonc12 | > 100 |
| CCOC(=O)C(NC(=O)CC(C)C)(N1CCN(c2cc3c(cc2F)c(=O)c(C(=O)O)cn3C2CC2)CC1)C(F)(F)F (configuration not stated) | 74.5 |
| Cc1cn([C@@H]2C[C@H]2CO)c(=O)[nH]c1=O | > 100 |
| c1ccc(/C(=N/Nc2ccccn2)c2ncccn2)cc1 | 5.69 |
| O=C1C=CC(=O)c2c(O)c(NCCc3ccc(O)cc3)c(Cl)c(O)c21 | > 10 |
| COc1cc(I)c2c3c1OC1C34CCN(C)C(C2)C4=CC(I)C1(OC)OC (configuration not stated) | 93.8 |
| NC(=O)C(=CNC(=S)c1ccncc1)C(N)=O | > 100 |

From PubChem BioAssay (NCI)
